The record followed here is US20240132431A1, “METHOD FOR ALKYLATING ACIDIC FUNCTIONAL GROUP” (Chugai Seiyaku Kabushiki Kaisha, priority 2021, published 2024).

This test addresses T1, Bcl-2 protein (Recombinant Human Bcl-2 Protein) (Homo sapiens, UniProt P10415).
T1 construct: purchased Novus NBP2-34889
Put plainly: Binding evaluation of mixture library compounds to Bcl-2 using AS-MS (affinity selection mass spectrometry). Conditions: for ASMS ratio (%) n = 1 / ASMS ratio (%) n = 2: ASMS Ratio(%)=(A−C)/B×100; for ASMS ratio (%) n = 1: replicate n = 1; for ASMS ratio (%) n = 2: replicate n = 2. The essentials:
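Readout is ASMS Ratio (%), (A−C)/B×100, from reversed-phase LC/MS of SEC-passed extracts, with protein-free unfiltered standard (B) and protein-free SEC blank (C). Recombinant human Bcl-2 at 20 μM final met ~1200 pooled compounds at […] each for 1 h, 23° C., dark, in Tris-HCl pH 7.4 buffer.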

Where [1] appears, read: AS-MS on the mixture of 1200 library compounds.
Setting [2] is: AS-MS, mixture of 1200 compounds, Bcl-2.

T1 sequence (P10415 whole entry): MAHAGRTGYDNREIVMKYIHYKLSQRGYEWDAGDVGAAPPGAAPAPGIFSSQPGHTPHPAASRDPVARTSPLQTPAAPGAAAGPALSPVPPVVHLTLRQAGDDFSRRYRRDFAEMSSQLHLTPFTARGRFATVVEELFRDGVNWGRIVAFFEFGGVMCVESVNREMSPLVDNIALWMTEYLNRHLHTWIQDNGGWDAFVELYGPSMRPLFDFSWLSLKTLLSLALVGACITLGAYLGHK

Turning to `CCOc1cncc(-c2ccc(CN3CCN(c4ccc(C(=O)NS(=O)(=O)C(C)(C)C)cc4)CC3)c(CC)c2)c1` [B2L050-01], the “ASMS ratio (%)” value is, setting by setting: (n = 1) 0.0%; (n = 2) 0.0%.
Take `CCOc1cccc(-c2cnn(-c3cc(C(=O)N4CCN(c5ccc(C(=O)NS(=O)(=O)C(C)(C)C)cc5)CC4)cc(C(F)(F)F)c3)c2)c1` [B2L043-01, N-tert-Butylsulfonyl-4-[4-[3-[4-(3-ethoxyphenyl)pyrazol-1-yl]-5-(trifluoromethyl)benzoyl]piperazin-1-yl]benzamide]: the “ASMS ratio (%)” value runs as follows: (n = 1) 0.0%; (n = 2) 0.0%.
With `CCOc1cccc(-c2ccc(C(C)N3CCN(c4ccc(C(=O)NS(=O)(=O)C(C)(C)C)cc4)CC3)cc2)c1` (centres unmarked) [B2L097-01, N-tert-Butylsulfonyl-4-[4-[1-[4-(3-ethoxyphenyl)phenyl]ethyl]piperazin-1-yl]benzamide], the “ASMS ratio (%)” value runs as follows: (n = 1) 0.0%; (n = 2) 0.0%.
Turning to `CCOc1cncc(-c2ccc(C(=O)N3CCN(c4ccc(C(=O)Nc5ccc(OC)cc5)nn4)CC3)c3ccccc23)c1` [B1O014-01, 6-[4-[4-(5-Ethoxypyridin-3-yl)naphthalene-1-carbonyl]piperazin-1-yl]-N-(4-methoxyphenyl)pyridazine-3-carboxamide], under setting [1], the “ASMS ratio (%) n = 1” value stood at 2.5% and the “ASMS ratio (%) n = 2” value was 0.2%.
As to `CCOc1cncc(-c2ccc(CN3CCN(c4ccc(C(=O)NS(C)(=O)=O)cc4)CC3)cc2C)c1` [B2I048-01, 4-[4-[[4-(5-Ethoxypyridin-3-yl)-3-methylphenyl]methyl]piperazin-1-yl]-N-methylsulfonylbenzamide], the “ASMS ratio (%)” value was 0.0% (n = 1) and 0.0% (n = 2).
As to `CCOc1cncc(-c2ccc(CN3CCN(c4ccc(C(=O)N(CC)CC)nn4)CC3)cc2F)c1` [B4J078-01, 6-[4-[[4-(5-Ethoxypyridin-3-yl)-3-fluorophenyl]methyl]piperazin-1-yl]-N,N-diethylpyridazine-3-carboxamide], under “AS-MS, mixture library, Bcl-2”, the “ASMS ratio (%) n = 1” value was −0.5% and the “ASMS ratio (%) n = 2” value came to 0.9%.
For the compound `CCOc1cccc(-c2ccc(C(C)N3CCN(c4ccc(C(=O)NCC(F)(F)F)cc4)CC3)cc2)c1` (centres unmarked) [B1K097-01, 4-[4-[1-[4-(3-Ethoxyphenyl)phenyl]ethyl]piperazin-1-yl]-N-(2,2,2-trifluoroethyl)benzamide], under setting [2], the “ASMS ratio (%) n = 1” value is given as −2.1% and the “ASMS ratio (%) n = 2” value is listed as −3.1%.
As to `CCOc1cccc(-c2ccc(CN3CCN(c4ccc(C(=O)NS(=O)(=O)c5ccc(NCCSc6ccccc6)c([N+](=O)[O-])c5)cc4)CC3)c3ccccc23)c1` [B2Q065-01], where the note is “AS-MS, mixture library, Bcl-2”, the “ASMS ratio (%) n = 1” value came out at 30.6% and the “ASMS ratio (%) n = 2” value is reported as −1.6%.
In the case of `CCOc1cccc(C#Cc2ccccc2C(=O)N2CCN(c3ccc(C(=O)NCC(F)(F)F)nn3)CC2)c1` [B1K007-01, 6-[4-[2-[2-(3-Ethoxyphenyl)ethynyl]benzoyl]piperazin-1-yl]-N-(2,2,2-trifluoroethyl)pyridazine-3-carboxamide], under setting [2], the “ASMS ratio (%) n = 1” value came out at 0.0% and the “ASMS ratio (%) n = 2” value is recorded as 1.3%.
In the case of `CCOc1cncc(-c2ccc(CN3CCN(c4ccc(C(=O)NS(=O)(=O)CCC(F)(F)F)nn4)CC3)c(CC)c2)c1` [B2N076-01, 6-[4-[[4-(5-Ethoxypyridin-3-yl)-2-ethylphenyl]methyl]piperazin-1-yl]-N-(3,3,3-trifluoropropylsulfonyl)pyridazine-3-carboxamide], the “ASMS ratio (%)” value is, setting by setting: (n = 1) 0.0%; (n = 2) 0.0%.
As to `CCOc1cccc(-c2ccc(CN3CCN(c4ccc(C(=O)NCC(F)(F)F)nn4)CC3)c3ccccc23)c1` [B1K091-01, 6-[4-[[4-(3-Ethoxyphenyl)naphthalen-1-yl]methyl]piperazin-1-yl]-N-(2,2,2-trifluoroethyl)pyridazine-3-carboxamide], under setting [2], the “ASMS ratio (%) n = 1” value was 3.6% and the “ASMS ratio (%) n = 2” value was −4.2%.
As for `CCOc1cncc(-c2cc(OC)c(CN3CCN(c4ccc(C(=O)NS(C)(=O)=O)cc4)CC3)c(OC)c2)c1` [B2I060-01], the “ASMS ratio (%)” value was found to be 0.0% (n = 1) and 0.0% (n = 2).
For the compound `CCOc1cncc(-c2cc(CN3CCN(c4ccc(C(=O)NS(=O)(=O)CCC(F)(F)F)nn4)CC3)cc(OC(C)C)c2)c1` [B2N084-01, 6-[4-[[3-(5-Ethoxypyridin-3-yl)-5-propan-2-yloxyphenyl]methyl]piperazin-1-yl]-N-(3,3,3-trifluoropropylsulfonyl)pyridazine-3-carboxamide], the “ASMS ratio (%)” value is given as 0.0% (n = 1) and 0.0% (n = 2).
With `CCOc1cncc(-c2cc(CN3CCN(c4ccc(C(=O)NS(=O)(=O)c5ccc(NCCSc6ccccc6)c([N+](=O)[O-])c5)nn4)CC3)cc(OC(F)(F)F)c2)c1` [B2Q090-01, 6-[4-[[3-(5-Ethoxypyridin-3-yl)-5-(trifluoromethoxy)phenyl]methyl]piperazin-1-yl]-N-[3-nitro-4-(2-phenylsulfanylethylamino)phenyl]sulfonylpyridazine-3-carboxamide], where the note is “AS-MS, mixture library, Bcl-2”, the “ASMS ratio (%) n = 1” value came to 21.8% and the “ASMS ratio (%) n = 2” value amounted to 13.2%.
For `CCOc1cncc(-c2ccccc2CCC(=O)N2CCN(c3ccc(C(=O)NS(=O)(=O)c4ccc(NCCSc5ccccc5)c(C(F)(F)F)c4)cc3)CC2)c1` [B2R034-01, 4-[4-[3-[2-(5-Ethoxypyridin-3-yl)phenyl]propanoyl]piperazin-1-yl]-N-[4-(2-phenylsulfanylethylamino)-3-(trifluoromethyl)phenyl]sulfonylbenzamide], the “ASMS ratio (%)” value is 0.1% (n = 1) and −1.3% (n = 2).
For `CCOc1cccc(-c2cc(CN3CCN(c4ccc(C(=O)NS(=O)(=O)c5ccc(NCCSc6ccccc6)c([N+](=O)[O-])c5)nn4)CC3)cc(C(F)(F)F)c2)c1` [B2Q087-01, 6-[4-[[3-(3-Ethoxyphenyl)-5-(trifluoromethyl)phenyl]methyl]piperazin-1-yl]-N-[3-nitro-4-(2-phenylsulfanylethylamino)phenyl]sulfonylpyridazine-3-carboxamide], where the note is “AS-MS, mixture library, Bcl-2”, the “ASMS ratio (%) n = 1” value came out at 17.6% and the “ASMS ratio (%) n = 2” value is recorded as −2.1%.
For `CCOc1cncc(-c2ccc(C(=O)N3CCN(c4ccc(C(=O)NS(C)(=O)=O)nn4)CC3)cc2F)c1` [B2I006-01, 6-[4-[4-(5-Ethoxypyridin-3-yl)-3-fluorobenzoyl]piperazin-1-yl]-N-methylsulfonylpyridazine-3-carboxamide], in that order: 0.0% and 0.0%.
For `CCOc1cncc(-c2ccc(CN3CCN(c4ccc(C(=O)NS(=O)(=O)CC56CC7CC(CC(C7)C5)C6)nn4)CC3)c(OC)c2)c1` [B2A080-01, N-(1-Adamantylmethylsulfonyl)-6-[4-[[4-(5-ethoxypyridin-3-yl)-2-methoxyphenyl]methyl]piperazin-1-yl]pyridazine-3-carboxamide], in that order: 0.0% and 0.0%.
For `CCOc1cncc(-c2ccccc2CCC(=O)N2CCN(c3ccc(C(=O)N(CC)CC)cc3)CC2)c1` [B4J034-01, 4-[4-[3-[2-(5-Ethoxypyridin-3-yl)phenyl]propanoyl]piperazin-1-yl]-N,N-diethylbenzamide], under setting [1], the “ASMS ratio (%) n = 1” value is recorded as −0.7% and the “ASMS ratio (%) n = 2” value turned out to be 0.9%.
As to `CCOc1cncc(-c2csc(C(=O)N3CCN(c4ccc(C(=O)NCC(F)(F)F)nn4)CC3)c2)c1` [B1K002-01, 6-[4-[4-(5-Ethoxypyridin-3-yl)thiophene-2-carbonyl]piperazin-1-yl]-N-(2,2,2-trifluoroethyl)pyridazine-3-carboxamide], under setting [2], the “ASMS ratio (%) n = 1” value was determined as 0.0% and the “ASMS ratio (%) n = 2” value is recorded as 0.0%.
For the compound “6-[4-[5-[2-(5-Ethoxypyridin-3-yl)ethynyl]pyridine-3-carbonyl]piperazin-1-yl]-N-propylpyridazine-3-carboxamide [B1M056-01]”, under setting [2], the “ASMS ratio (%) n = 1” value is listed as 0.5% and the “ASMS ratio (%) n = 2” value is 0.0%.
`CCOc1cccc(-c2ccc(CN3CCN(c4ccc(C(=O)NS(=O)(=O)CC56CC7CC(CC(C7)C5)C6)nn4)CC3)c3ccccc23)c1` [B2A091-01, N-(1-Adamantylmethylsulfonyl)-6-[4-[[4-(3-ethoxyphenyl)naphthalen-1-yl]methyl]piperazin-1-yl]pyridazine-3-carboxamide]: for the setting “AS-MS, mixture library, Bcl-2”, the “ASMS ratio (%) n = 1” value was −2.6% and the “ASMS ratio (%) n = 2” value is given as 3.8%.
As for `CCOc1cccc(C#Cc2ccccc2CN2CCN(c3ccc(C(=O)NS(=O)(=O)CC45CC6CC(CC(C6)C4)C5)cc3)CC2)c1` [B2A069-01, N-(1-Adamantylmethylsulfonyl)-4-[4-[[2-[2-(3-ethoxyphenyl)ethynyl]phenyl]methyl]piperazin-1-yl]benzamide], under “AS-MS, mixture library, Bcl-2”, the “ASMS ratio (%) n = 1” value is 4.6% and the “ASMS ratio (%) n = 2” value is −4.6%.
Take `CCOc1cncc(-c2cc(CN3CCN(c4ccc(C(=O)Nc5ccc(OC)cc5)nn4)CC3)cc(OCC)c2)c1` [B1O082-01, 6-[4-[[3-Ethoxy-5-(5-ethoxypyridin-3-yl)phenyl]methyl]piperazin-1-yl]-N-(4-methoxyphenyl)pyridazine-3-carboxamide]: under setting [1], the “ASMS ratio (%) n = 1” value is on record as 1.5% and the “ASMS ratio (%) n = 2” value was determined as 2.6%.
On to `CCOc1cccc(-c2ccccc2CCC(=O)N2CCN(c3ccc(C(=O)NCC45CC6CC(CC(C6)C4)C5)nn3)CC2)c1` [B1A011-01, N-(1-Adamantylmethyl)-6-[4-[3-[2-(3-ethoxyphenyl)phenyl]propanoyl]piperazin-1-yl]pyridazine-3-carboxamide], for which, under setting [2], the “ASMS ratio (%) n = 1” value stood at 11.2% and the “ASMS ratio (%) n = 2” value was −13.2%.
